From patent US11767298B2, “Substituted benzimidazoles as inhibitors of transforming growth factor-β kinase” (Duke University, priority 2016, dated 2023)
Entries after “also recorded” stand apart in the source; their conditions may differ.

How the values were obtained:
PfPK9 = assay: UBC13 phosphorylation by PfPK9 (ADP luminescence assay); format: biochemical, P. falciparum; conditions: compared to DMSO
Procedure: Recombinant protein expression and enzyme activity assay. Recombinant GST-tagged PfPK9 was expressed in E. coli BL21(DE3) cells, purified to homogeneity, and the GST tag was cleaved with PreScission Protease (GE Healthcare). To test for inhibition of PfPK9, the ADP detection assay ADP-Glo (Promega) was used to determine ATPase activity of PfPK9 in the presence of the PfUBC13 protein substrate when treated with compounds 1 and 5. Approximately 500 nM PfPK9 was incubated with either compound (10 μM or 500 μM) for 5 min at RT in buffer containing 40 mM Tris, pH 7.5, 20 mM MgCl2, 2 mM MnCl2 and 1 mM DTT prior to assay initiation with 100 μM ATP. The assay was performed in white low-volume 384-well plates (Corning #3824) in triplicate. The assay plate was sealed and subsequently incubated for 8 hrs at 37° C. before ADP detection per manufacturer instructions. The final assay volume was 5 μL with a final concentration of 1% DMSO. A negative control was performed in 1% DMSO and heat inactivated PfPK9 (80° C. for 5 min) was used as a positive control. The luminescence intensity in each well was measured on an EnVision system. Data were normalized to the average luminescence signal of the negative control to provide relative ADP concentrations and graphs were constructed in GraphPad Prism. Data analyses were conducted from three independent experiments. […]

[1] = tested on: TAK1 downstream signaling (IKK, p38) in MDA-MB-231 cells; assay: TNFα dependent signaling in MDA-MB-231 cells; format: cell-based; conditions: 10 μM, 2 h pretreatment, TNFα stimulation
Procedure: (§1) In order to investigate the effects of HS-206 on cellular signaling, MDA-MB-231 and Hela cells were pretreated with 10 μM HS-206 for 2 h and stimulated with TNFα (FIG. 8).

MINK1 = MINK1 (Homo sapiens, UniProt Q8N4C8); assay: Kinase profiling (Dundee), MINK1; format: biochemical; conditions: 10 μM
Procedure: (§2) Kinase selectivity profiling. The selectivity profile of HS-206 to inhibit mammalian kinases was tested against a panel of 140 kinases at a single concentration of 10 μM. Tests were performed using a radiolabeld (^33P-ATP) filter-binding assay at the International Centre for Kinase Profiling at the University of Dundee, UK (http://www.kinase-screen.mrc.ac.uk/).
(§3) This panel contains members of all major kinase families, including tyrosine kinases (TK), tyrosine kinase-like (TKL), sterile serine/threonine (STE), and CDK/MAPK/GSK/CLK (CMGC). […] For these kinases, IC50 values were determined (Table 1).

[2] = tested on: TAK1 downstream signaling (IKK, p38, NFκB) in Hela cells; assay: TNFα dependent signaling in Hela cells; format: cell-based
Procedure: as §1

P. berghei [3] = assay: Liver stage parasite load, luciferase-expressing P. berghei in HepG2 cells; format: cell-based, Plasmodium berghei ANKA; conditions: HepG2 host cells
Procedure: (§4) Cell-based anti-Plasmodium assays. For liver stage assays, 15,000 HepG2 or 8,000 Huh7 cells/well were added to 384-well microtiter plates using a multichannel pipette (Rainin). After 2 hours at 37° C., compounds (0-100 μM) were added to cells in duplicate or triplicate in a final concentration of 1% DMSO. DMSO was used as the negative control. Following compound incubation at 37° C. for ˜1 hr, harvested luciferase-expressing P. berghei ANKA sporozoites were added to the plates at a density of 3,000 sporozoites/well. P. berghei ANKA sporozoites were obtained from harvesting the salivary glands of infected A. stephensi mosquitoes. The plates were spun for 10 min at 1,000 rpm, and then incubated at 37° C. for ˜45 hrs. […] After ˜45 hours at 37° C., liver cell viability was assessed using CellTiter-Fluor (Promega) and then parasite load was determined using Bright-Glo (Promega). The relative fluorescence and luminescence signal intensity of each well was evaluated with an EnVision System. The luminescence signal in the presence of compounds was normalized to the negative control (DMSO). Dose-response analysis was performed with GraphPad Prism to yield the reported EC50 values.
Anti-Plasmodium activity was evaluated in the parasite's liver stage using a previously reported high-throughput assay. In this assay, luciferase-expressing P. berghei (murine) parasites are used to infect human hepatoma cells (HepG2) and parasite load is assessed with a luminometer subsequent to evaluating HepG2 viability using a commercially available quantification kit that measures intracellular protease activity.
(§5) Specifically, their ability to inhibit P. berghei infection in two human hepatoma cell lines (HepG2 and Huh7) as well as cytotoxicity against HepG2 and Huh7 cells was determined as described above. Liver cell cytotoxicity was evaluated with two different commercially available assays, one that tests for intracellular protease activity with a fluorescence reporter and another that relies on the luminescent detection of total ATP.

panel of 140 kinases = assay: Kinase selectivity profiling, 33P-ATP filter-binding assay (Dundee); format: biochemical; conditions: of the 140 kinases, 10 μM
Procedure: as §2, §3

ATP-binding proteins = assay: ATP-beads off-target elution, HepG2 whole-cell lysates; conditions: uninfected HepG2 lysate; compared to DMSO control
IRAK1 = IRAK1 (Homo sapiens, UniProt P51617); assay: Kinase profiling (Dundee), IRAK1; format: biochemical
Procedure: as §2, §3

P. berghei [4] = assay: Liver stage parasite load, luciferase-expressing P. berghei in Huh7 cells; format: cell-based, Plasmodium berghei ANKA; conditions: Huh7 host cells, read-out: IC50 Liver state (Huh7)
Procedure: as §4, §5

Chain of IRAK1 (P51617 whole entry): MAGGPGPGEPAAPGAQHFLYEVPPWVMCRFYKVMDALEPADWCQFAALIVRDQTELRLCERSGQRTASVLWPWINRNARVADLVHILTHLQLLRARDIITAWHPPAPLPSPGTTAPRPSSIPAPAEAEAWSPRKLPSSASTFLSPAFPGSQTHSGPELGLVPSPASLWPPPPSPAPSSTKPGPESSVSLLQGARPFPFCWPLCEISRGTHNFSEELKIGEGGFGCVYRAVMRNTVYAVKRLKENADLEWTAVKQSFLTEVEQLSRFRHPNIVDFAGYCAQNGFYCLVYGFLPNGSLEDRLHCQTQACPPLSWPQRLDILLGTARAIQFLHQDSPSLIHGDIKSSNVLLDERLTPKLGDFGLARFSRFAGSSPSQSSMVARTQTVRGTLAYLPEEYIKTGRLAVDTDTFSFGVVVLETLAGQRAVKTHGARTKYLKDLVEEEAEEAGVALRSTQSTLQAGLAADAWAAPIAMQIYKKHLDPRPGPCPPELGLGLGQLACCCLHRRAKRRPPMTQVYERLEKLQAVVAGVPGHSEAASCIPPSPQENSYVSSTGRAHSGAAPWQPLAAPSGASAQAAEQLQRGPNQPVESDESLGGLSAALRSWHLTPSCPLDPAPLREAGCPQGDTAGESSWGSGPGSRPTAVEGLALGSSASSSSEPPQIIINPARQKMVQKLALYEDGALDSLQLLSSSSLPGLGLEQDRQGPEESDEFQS
Chain of MINK1 (Q8N4C8 whole entry): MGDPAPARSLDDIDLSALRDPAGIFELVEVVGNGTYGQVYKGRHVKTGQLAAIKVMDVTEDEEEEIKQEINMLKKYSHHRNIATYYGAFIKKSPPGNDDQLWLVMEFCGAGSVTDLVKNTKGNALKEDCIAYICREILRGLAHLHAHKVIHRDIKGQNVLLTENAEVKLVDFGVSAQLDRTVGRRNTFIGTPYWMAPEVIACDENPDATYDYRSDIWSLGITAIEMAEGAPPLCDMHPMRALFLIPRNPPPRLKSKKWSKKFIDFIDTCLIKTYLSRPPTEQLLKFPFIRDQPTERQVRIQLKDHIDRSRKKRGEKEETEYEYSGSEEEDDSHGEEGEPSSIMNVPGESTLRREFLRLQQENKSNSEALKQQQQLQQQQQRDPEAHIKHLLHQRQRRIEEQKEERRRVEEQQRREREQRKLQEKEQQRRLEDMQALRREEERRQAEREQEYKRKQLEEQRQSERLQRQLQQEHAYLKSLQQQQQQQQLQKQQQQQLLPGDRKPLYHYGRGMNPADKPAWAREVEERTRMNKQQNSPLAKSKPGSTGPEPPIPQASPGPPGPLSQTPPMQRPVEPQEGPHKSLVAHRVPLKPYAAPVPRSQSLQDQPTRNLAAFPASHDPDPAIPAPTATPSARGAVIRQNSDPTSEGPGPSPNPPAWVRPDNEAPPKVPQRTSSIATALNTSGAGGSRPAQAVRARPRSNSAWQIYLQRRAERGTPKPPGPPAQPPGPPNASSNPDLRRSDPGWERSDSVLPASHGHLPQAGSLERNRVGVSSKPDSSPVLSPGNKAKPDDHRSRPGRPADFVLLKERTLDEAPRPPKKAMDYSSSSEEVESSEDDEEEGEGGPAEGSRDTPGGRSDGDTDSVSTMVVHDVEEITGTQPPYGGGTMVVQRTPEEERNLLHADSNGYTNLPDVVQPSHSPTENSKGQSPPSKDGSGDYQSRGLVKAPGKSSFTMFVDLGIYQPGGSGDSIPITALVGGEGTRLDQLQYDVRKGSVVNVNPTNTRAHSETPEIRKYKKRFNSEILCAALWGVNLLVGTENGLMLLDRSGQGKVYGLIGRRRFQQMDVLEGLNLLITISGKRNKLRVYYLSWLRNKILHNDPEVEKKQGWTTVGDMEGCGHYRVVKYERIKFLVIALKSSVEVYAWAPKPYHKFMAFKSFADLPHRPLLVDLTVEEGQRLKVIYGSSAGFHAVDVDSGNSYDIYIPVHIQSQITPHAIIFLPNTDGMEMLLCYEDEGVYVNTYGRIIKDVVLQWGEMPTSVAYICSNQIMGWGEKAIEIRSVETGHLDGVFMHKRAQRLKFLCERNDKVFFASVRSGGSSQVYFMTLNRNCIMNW

With `CCCn1c(NC(=O)c2cccc(C(N)=O)c2)nc2ccccc21` [HS-206 (1), (E)-N-(1-Propyl-1,3-dihydro-2H-benzo[d]imidazol-2-ylidene)isophthalamide] the “UBC13 phosphorylation by PfPK9” value (PfPK9) was “significantly decreased”, the “TNFα dependent signaling (activation of IKK and p38)” value [1] was “inhibited activation of IKK and p38; also recorded: inhibits TNFα dependent signaling” and the inhibition at 10 µM (MINK1) was greater than 90%. The “TNFα dependent signaling (activation of IKK and p38)” value ([2]; 10 μM, 2 h pretreatment, TNFα stimulation) was “inhibited activation of IKK and p38; also recorded: inhibits TNFα dependent signaling”, the “dose-dependent inhibition of signaling upon TNFα stimulation” value ([2]; Hela cells) was “inhibits p38 and NFκB signaling in a dose-dependent manner; also recorded: dose-dependent inhibition of JNK and NFκB signaling” and the IC50 (P. berghei [3]; Plasmodium berghei, HepG2, parasite load) was roughly 7 µM. The IC50 (P. berghei [3]; parasite load) was 6.6 µM, the “number of kinases with ≥80% inhibition” value (panel of 140 kinases) was 11 and the “elution of ATP-binding proteins from ATP-sepharose beads” value (ATP-binding proteins) was “did not lead to any significant elution of ATP-binding proteins”. For the same molecule, the IC50 (IRAK1) was 0.39 ± 0.05 µM, the inhibition at 10 µM (IRAK1; 10 μM) was greater than 90% and the IC50 (P. berghei [4]; Plasmodium berghei, Huh-7, parasite load) was roughly 7 µM. The IC50 (P. berghei [4]; parasite load) was 7.3 µM.
